Experimental data taken from ChEMBL document CHEMBL1201862, “PubChem BioAssay data set” (2004).
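Cultured in 96-well plates, cells were exposed to test compound for 48 hours across five concentrations. At the GI50, growth is halved.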 Calls of active or inactive are those of the source. Cut-off read from the data, not from the text of the source: active = GI50 up to about 1.1 µM and inactive = higher.

What was measured:
Assay in all cases: growth of human tumour cells (NCI), 48 h
HCT-15 = system: HCT-15
HCT-116 = system: HCT-116
SNB-75 = system: SNB-75
PC-3 = system: PC-3
MDA-N = system: MDA-N
NCI-H522 = system: NCI-H522
MDA-MB-231 = system: MDA-MB-231
RXF 393 = system: RXF 393
Hs-578T = system: Hs-578T
UO-31 = system: UO-31
OVCAR-4 = system: OVCAR-4
SF-295 = system: SF-295
HOP-62 = system: HOP-62
MOLT-4 = system: MOLT-4
NCI/ADR-RES = system: NCI/ADR-RES
HL-60 = system: HL-60
RPMI-8226 = system: RPMI-8226
A498 = system: A498

Structure (SMILES) | GI50 (HCT-15) [µM] | GI50 (HCT-116) | GI50 (SNB-75) | GI50 (PC-3) | GI50 (MDA-N) | GI50 (NCI-H522) | GI50 (MDA-MB-231) | GI50 (RXF 393) | GI50 (Hs-578T) | GI50 (UO-31) | GI50 (OVCAR-4) | GI50 (SF-295) | GI50 (HOP-62) | GI50 (MOLT-4) | GI50 (NCI/ADR-RES) | GI50 (HL-60) | GI50 (RPMI-8226) | GI50 (A498)
O=C(O)c1cc(O)nc(S)n1 | > 100 | > 100 µM (inactive) | 94.2 µM (inactive) | > 100 µM (inactive) | > 100 µM (inactive) | > 100 µM (inactive) | > 100 µM (inactive) | > 100 µM (inactive) | > 100 µM (inactive) | > 100 µM (inactive) | > 100 µM (inactive) | > 100 µM (inactive) | > 100 µM (inactive) | > 100 µM (inactive) | > 100 µM (inactive) | > 100 µM (inactive) | > 100 µM (inactive) | > 100 µM (inactive)
OCCCNc1[nH]cnc2nncc1-2 | > 100 | > 100 µM (inactive) | > 100 µM (inactive) | > 100 µM (inactive) | > 100 µM (inactive) | > 100 µM (inactive) | > 100 µM (inactive) | > 100 µM (inactive) | > 100 µM (inactive) | > 100 µM (inactive) | > 100 µM (inactive) | > 100 µM (inactive) | > 100 µM (inactive) | > 100 µM (inactive) | > 100 µM (inactive) | > 100 µM (inactive) | > 100 µM (inactive) | > 100 µM (inactive)
N#CC(N)c1ccc(OCCCCCCCCCCOc2ccc(C(N)C#N)cc2)cc1 (stereo not given) | > 100 | 80 µM (inactive) |  | > 100 µM (inactive) | > 100 µM (inactive) | > 100 µM (inactive) | > 100 µM (inactive) | 43.2 µM (inactive) | > 100 µM (inactive) | > 100 µM (inactive) | > 100 µM (inactive) | > 100 µM (inactive) |  | 18.6 µM (inactive) | 27.8 µM (inactive) | 52.1 µM (inactive) |  | > 100 µM (inactive)
CC(=O)N1CN2C(=O)CCC2c2cc(C)ccc21 (stereo not given) | > 100 | > 100 µM (inactive) | > 100 µM (inactive) | > 100 µM (inactive) | > 100 µM (inactive) | > 100 µM (inactive) | > 100 µM (inactive) | > 100 µM (inactive) | > 100 µM (inactive) | > 100 µM (inactive) | > 100 µM (inactive) | > 100 µM (inactive) | > 100 µM (inactive) | > 100 µM (inactive) | > 100 µM (inactive) | > 100 µM (inactive) | > 100 µM (inactive) | > 100 µM (inactive)
Cc1c(-c2ccccc2)n[nH]c1NC1(C)C(=O)N(/N=C/c2ccccc2)N=C1c1ccccc1 (stereo not given) | > 44.5 | > 59.2 µM (inactive) | > 100 µM (inactive) | 24.9 µM (inactive) | 97.5 µM (inactive) | > 100 µM (inactive) | > 100 µM (inactive) | > 29.8 µM (inactive) | > 100 µM (inactive) | > 100 µM (inactive) | 31.8 µM (inactive) | 68.2 µM (inactive) | > 100 µM (inactive) | 10.2 µM (inactive) | 43.8 µM (inactive) | 46.6 µM (inactive) | 5.7 µM (inactive) | > 83.4 µM (inactive)
C=Cc1nc(C#N)c(N)o1 | > 100 | > 100 µM (inactive) | > 100 µM (inactive) | > 100 µM (inactive) | > 100 µM (inactive) | > 100 µM (inactive) | > 100 µM (inactive) | > 100 µM (inactive) | > 100 µM (inactive) | > 100 µM (inactive) | > 100 µM (inactive) | > 100 µM (inactive) | > 100 µM (inactive) | > 100 µM (inactive) | > 100 µM (inactive) | > 100 µM (inactive) | > 100 µM (inactive) | > 100 µM (inactive)
